This note sets out measurements from patent US20240217977A1, “DIAZEPANONE-FUSED PYRIMIDINE COMPOUNDS, COMPOSITIONS AND MEDICINAL APPLICATIONS THEREOF” (Blueprint Medicines Corporation, priority 2021, published 2024).

What all share (assay type): cell-based
For test [1], the target named is HER2 (A775_G775insYVMA) expressing Ba/F3 stable cell line (Homo sapiens, UniProt P04626, DUP772-775, cells depend on it). The test is described as follows: Cellular proliferation (Alamar Blue) assay, HER2 (A775_G775insYVMA) Ba/F3. The note with it: 72 hr incubation, read-out: YVMA IC50. As to the method:
(§1) Example 2: Cellular Proliferation (Alamar Blue) Assays
(§2) • 1. EGFR(D770_N771insSVD) expressing Ba/F3 stable cell line • 2. EGFR (A767_dupASV) expressing Ba/F3 stable cell line • 3. A431 cells • 4. EGFR (H773insNPH) expressing Ba/F3 stable cell line • 5. HER2 (A775_G775insYVMA) expressing Ba/F3 stable cell line
(§3) • 1. Seed cells at 5000 for A431 and 15,000 cells for Ba/F3 in 100 μL/well in complete media (for A431: DMEM with 10% FBS and for Ba/F3 cells: RPMI with 10% FBS) in • 96-well tissue culture plate. Leave outer wells without cells for background measurements. Incubate at 37 degree Celsius in 5% C02 humidified incubator for 16-18 hours. • 2. Add 0.025 ml of 5× concentration compound dilution or DMSO control. Final compound concentration range is 10-0.0005 μM prepared in 3-fold serial dilutions. Incubate for 72 hr at 37 degree Celsius in 5% CO2 humidified incubator. • 3. Add 0.0125 ml Alamar Blue™ reagent to each well with multi-channel pipette and tap gently on each side of the plate to mix. Incubate for 3 hours at 37 degree Celsius in 5% CO2 humidified incubator. • 4. Read plates on fluorescence reader (Tecan Spark Control, Device: Spark, Serial #: 1801006040) at 540 nm excitation, 590 nm emission wavelength. • 5. Data analysis was performed using XLfit 5.5.0.5.

The target of test [2] is EGFR (A767_dupASV) expressing Ba/F3 stable cell line (Homo sapiens, UniProt P00533, DUP767-769, cells depend on it). The test is described as follows: Cellular proliferation (Alamar Blue) assay, EGFR (A767_dupASV) Ba/F3. Particulars: 72 hr incubation, read-out: A767 IC50. The method, then:
as §1, §2, §3
(The colour change of resazurin is a common sign of viable cells or microbes.)

In test [3] the test system is A431 cells. Kind of test: Cellular proliferation (Alamar Blue) assay, A431 cells. The note with it: Homo sapiens, A-431, 72 hr incubation. As to the method: as §1, §2, §3
In test [4] the target is EGFR(D770_N771insSVD) expressing Ba/F3 stable cell line (Homo sapiens, UniProt P00533, DUP768-770, cells depend on it). Kind of test: Cellular proliferation (Alamar Blue) assay, EGFR(D770_N771insSVD) Ba/F3. The note with it: 72 hr incubation, read-out: D770 IC50. The method, then: as §1, §2, §3
EGFR(D770_N771insSVD) expressing Ba/F3 stable cell line, sequence (P00533 with tags, fused parts or gaps DUP768-770): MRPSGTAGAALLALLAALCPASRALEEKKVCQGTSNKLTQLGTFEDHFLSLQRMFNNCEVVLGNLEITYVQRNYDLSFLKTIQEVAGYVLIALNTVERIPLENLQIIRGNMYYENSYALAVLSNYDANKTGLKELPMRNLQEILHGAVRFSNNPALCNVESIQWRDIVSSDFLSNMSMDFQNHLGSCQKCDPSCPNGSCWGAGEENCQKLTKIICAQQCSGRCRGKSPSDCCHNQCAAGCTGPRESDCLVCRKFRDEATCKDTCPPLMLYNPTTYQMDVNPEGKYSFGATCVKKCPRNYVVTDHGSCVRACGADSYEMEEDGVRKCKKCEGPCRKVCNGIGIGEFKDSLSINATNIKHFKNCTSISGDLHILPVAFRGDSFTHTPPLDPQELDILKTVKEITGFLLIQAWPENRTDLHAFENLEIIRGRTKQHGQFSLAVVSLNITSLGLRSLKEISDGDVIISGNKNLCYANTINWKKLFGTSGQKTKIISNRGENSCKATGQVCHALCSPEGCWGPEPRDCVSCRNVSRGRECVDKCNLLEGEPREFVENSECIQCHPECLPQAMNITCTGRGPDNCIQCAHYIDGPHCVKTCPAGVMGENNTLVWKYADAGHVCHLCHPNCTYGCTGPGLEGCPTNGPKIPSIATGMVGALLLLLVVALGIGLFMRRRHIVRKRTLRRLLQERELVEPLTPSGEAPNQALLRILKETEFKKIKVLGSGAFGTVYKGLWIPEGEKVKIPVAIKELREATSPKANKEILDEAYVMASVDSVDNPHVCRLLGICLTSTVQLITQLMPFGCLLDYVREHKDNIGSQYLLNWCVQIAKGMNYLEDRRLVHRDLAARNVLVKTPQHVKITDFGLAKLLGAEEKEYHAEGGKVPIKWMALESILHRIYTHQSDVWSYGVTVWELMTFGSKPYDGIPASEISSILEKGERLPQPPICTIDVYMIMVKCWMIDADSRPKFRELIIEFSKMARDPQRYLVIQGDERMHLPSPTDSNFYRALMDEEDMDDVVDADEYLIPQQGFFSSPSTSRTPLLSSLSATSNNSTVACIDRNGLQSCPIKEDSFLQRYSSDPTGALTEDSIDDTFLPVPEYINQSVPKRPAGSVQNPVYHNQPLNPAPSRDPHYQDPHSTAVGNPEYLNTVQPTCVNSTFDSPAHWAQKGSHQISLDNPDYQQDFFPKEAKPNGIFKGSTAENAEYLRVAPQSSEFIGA

EGFR (A767_dupASV) expressing Ba/F3 stable cell line, sequence (P00533 with tags, fused parts or gaps DUP767-769): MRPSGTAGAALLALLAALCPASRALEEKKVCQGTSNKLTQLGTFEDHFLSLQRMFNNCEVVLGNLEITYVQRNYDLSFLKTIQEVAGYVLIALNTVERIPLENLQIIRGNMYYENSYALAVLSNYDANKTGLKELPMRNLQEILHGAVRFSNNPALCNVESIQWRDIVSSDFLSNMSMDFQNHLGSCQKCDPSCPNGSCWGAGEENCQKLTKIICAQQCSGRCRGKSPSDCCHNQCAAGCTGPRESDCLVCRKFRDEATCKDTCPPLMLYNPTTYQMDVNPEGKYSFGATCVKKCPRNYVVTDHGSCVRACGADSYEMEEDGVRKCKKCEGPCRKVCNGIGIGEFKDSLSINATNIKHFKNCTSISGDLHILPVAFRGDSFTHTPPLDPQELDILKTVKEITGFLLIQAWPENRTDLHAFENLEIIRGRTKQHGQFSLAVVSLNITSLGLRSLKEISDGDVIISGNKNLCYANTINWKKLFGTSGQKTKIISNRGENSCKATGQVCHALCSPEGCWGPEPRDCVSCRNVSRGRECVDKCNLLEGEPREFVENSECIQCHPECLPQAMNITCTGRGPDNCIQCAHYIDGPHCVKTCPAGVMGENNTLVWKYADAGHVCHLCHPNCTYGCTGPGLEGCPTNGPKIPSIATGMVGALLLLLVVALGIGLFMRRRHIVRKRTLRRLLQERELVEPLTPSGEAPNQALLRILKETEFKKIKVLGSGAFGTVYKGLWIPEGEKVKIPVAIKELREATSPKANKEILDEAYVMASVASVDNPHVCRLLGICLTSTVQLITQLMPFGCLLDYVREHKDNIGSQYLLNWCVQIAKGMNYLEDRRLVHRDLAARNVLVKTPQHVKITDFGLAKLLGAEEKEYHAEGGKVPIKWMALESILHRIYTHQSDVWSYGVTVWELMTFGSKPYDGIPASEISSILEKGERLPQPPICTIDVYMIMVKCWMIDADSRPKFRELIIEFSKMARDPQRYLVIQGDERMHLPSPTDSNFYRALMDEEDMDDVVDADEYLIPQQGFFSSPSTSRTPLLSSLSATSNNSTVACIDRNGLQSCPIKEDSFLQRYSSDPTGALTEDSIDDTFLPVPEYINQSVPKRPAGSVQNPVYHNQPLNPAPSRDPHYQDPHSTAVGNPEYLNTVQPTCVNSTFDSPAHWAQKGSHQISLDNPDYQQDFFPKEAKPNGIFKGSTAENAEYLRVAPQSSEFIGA
HER2 (A775_G775insYVMA) expressing Ba/F3 stable cell line, sequence (P04626 with tags, fused parts or gaps DUP772-775): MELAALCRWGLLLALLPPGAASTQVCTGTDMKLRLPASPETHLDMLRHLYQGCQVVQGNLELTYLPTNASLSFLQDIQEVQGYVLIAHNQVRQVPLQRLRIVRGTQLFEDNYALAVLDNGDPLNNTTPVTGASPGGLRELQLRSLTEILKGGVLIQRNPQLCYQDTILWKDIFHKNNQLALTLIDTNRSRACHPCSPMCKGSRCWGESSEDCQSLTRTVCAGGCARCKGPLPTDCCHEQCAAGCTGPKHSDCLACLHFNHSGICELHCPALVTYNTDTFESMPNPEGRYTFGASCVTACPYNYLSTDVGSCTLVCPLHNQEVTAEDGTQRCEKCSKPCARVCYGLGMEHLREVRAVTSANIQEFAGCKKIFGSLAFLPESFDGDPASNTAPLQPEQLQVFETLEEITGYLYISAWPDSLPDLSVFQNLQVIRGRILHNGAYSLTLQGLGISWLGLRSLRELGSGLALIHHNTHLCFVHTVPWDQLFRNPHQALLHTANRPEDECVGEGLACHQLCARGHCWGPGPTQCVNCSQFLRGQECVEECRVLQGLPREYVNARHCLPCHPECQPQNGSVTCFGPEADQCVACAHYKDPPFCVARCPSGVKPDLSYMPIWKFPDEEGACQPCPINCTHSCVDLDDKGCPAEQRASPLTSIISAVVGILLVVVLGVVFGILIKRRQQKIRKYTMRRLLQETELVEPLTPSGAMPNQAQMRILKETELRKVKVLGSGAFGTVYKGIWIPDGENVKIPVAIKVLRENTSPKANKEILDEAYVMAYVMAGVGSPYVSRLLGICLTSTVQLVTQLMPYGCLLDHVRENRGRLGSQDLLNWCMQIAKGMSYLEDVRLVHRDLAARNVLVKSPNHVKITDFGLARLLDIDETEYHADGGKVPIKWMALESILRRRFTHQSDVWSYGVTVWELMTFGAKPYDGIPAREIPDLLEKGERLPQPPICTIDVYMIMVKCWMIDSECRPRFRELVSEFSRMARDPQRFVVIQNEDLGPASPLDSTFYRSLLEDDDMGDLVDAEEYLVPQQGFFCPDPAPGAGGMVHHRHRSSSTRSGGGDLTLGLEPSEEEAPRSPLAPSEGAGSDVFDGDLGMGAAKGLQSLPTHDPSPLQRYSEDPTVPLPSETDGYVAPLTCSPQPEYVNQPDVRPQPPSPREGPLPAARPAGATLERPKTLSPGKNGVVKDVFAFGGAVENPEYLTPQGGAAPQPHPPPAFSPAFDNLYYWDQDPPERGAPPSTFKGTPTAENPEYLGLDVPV

One may read the IC50 as the point on the concentration scale where inhibition reaches its midpoint. A low value points to greater potency in that assay. For the molecule `COC/C=C/C(=O)Nc1cccc(N2C(=O)N(c3ccccc3)CCc3cnc(Nc4cn(C)nc4Cl)nc32)c1` [Compound 46, (E)-N-(3-(2-((3-chloro-1-methyl-1H-pyrazol-4-yl)amino)-8-oxo-7-phenyl-5,6,7,8-tetrahydro-9H-pyrimido[4,5-d][1,3]diazepin-9-yl)phenyl)-4-methoxybut-2-enamide], the GI50 in test [1] stood at 5950 nM; in test [2], 1130 nM; in test [4], 2770 nM. For the same molecule, the IC50 in test [3] was over 10000 nM.

As for `Cn1cc(Nc2ncc3c(n2)N(c2cccc(NC(=O)/C=C/CN4CCOCC4)c2)C(=O)N(c2ccccc2)CC3)c(Cl)n1` [Compound 32, (E)-N-(3-(2-((3-chloro-1-methyl-1H-pyrazol-4-yl)amino)-8-oxo-7-phenyl-5,6,7,8-tetrahydro-9H-pyrimido[4,5-d][1,3]diazepin-9-yl)phenyl)-4-morpholinobut-2-enamide], the GI50 is 3280 nM in test [1], 1160 nM in test [2] and 1360 nM in test [4]. The molecule further displayed an IC50 in test [3] of over 10000 nM.

With `Cn1cc(Nc2ncc3c(n2)N(c2cccc(NC(=O)C(F)Cl)c2)C(=O)N(Cc2ccccc2)CC3)c(Cl)n1` (centres unmarked) [Compound 24, N-(3-(7-benzyl-2-((3-chloro-1-methyl-1H-pyrazol-4-yl)amino)-8-oxo-5,6,7,8-tetrahydro-9H-pyrimido[4,5-d][1,3]diazepin-9-yl)phenyl)-2-chloro-2-fluoroacetamide], the GI50 is 2000 nM in test [1], 1150 nM in test [2] and 1090 nM in test [4]. In addition, the IC50 in test [3] was over 10000 nM.

As to `Cc1cc(Nc2ncc3c(n2)N(c2cccc(NC(=O)/C=C/CN(C)C)c2)C(=O)N(c2ccccc2)CC3)ccc1N1CCN(C)CC1` [Compound 34, (E)-4-(dimethylamino)-N-(3-(2-((3-methyl-4-(4-methylpiperazin-1-yl)phenyl)amino)-8-oxo-7-phenyl-5,6,7,8-tetrahydro-9H-pyrimido[4,5-d][1,3]diazepin-9-yl)phenyl)but-2-enamide], the GI50 in test [2] is 2790 nM; in test [4] it was 3480 nM. In test [3], the IC50 is 225 nM.

On to `C=CC(=O)Nc1cccc(N2C(=O)N(c3ccccc3)CCc3cnc(Nc4ccc(C5CCN(C)CC5)cc4)nc32)c1` [Compound 36, N-(3-(2-((4-(1-methylpiperidin-4-yl)phenyl)amino)-8-oxo-7-phenyl-5,6,7,8-tetrahydro-9H-pyrimido[4,5-d][1,3]diazepin-9-yl)phenyl)acrylamide], for which the GI50 in test [2] is 318 nM; in test [4], 325 nM. The molecule further gave an IC50 in test [3] of 20 nM.

Regarding `Cn1cc(Nc2ncc3c(n2)N(c2cccc(NC(=O)/C=C/CN4CCCCC4)c2)C(=O)N(c2ccccc2)CC3)c(Cl)n1` [Compound 40, (E)-N-(3-(2-((3-chloro-1-methyl-1H-pyrazol-4-yl)amino)-8-oxo-7-phenyl-5,6,7,8-tetrahydro-9H-pyrimido[4,5-d][1,3]diazepin-9-yl)phenyl)-4-(piperidin-1-yl)but-2-enamide], the GI50 is 536 nM in test [1], 325 nM in test [2] and 406 nM in test [4]. For the same molecule, the IC50 in test [3] was over 10000 nM.

For the molecule `C=CC(=O)Nc1cccc(N2C(=O)N(Cc3ccccc3)CCc3cnc(NC4CCOCC4)nc32)c1` [Compound 25, N-(3-(7-benzyl-8-oxo-2-((tetrahydro-2H-pyran-4-yl)amino)-5,6,7,8-tetrahydro-9H-pyrimido[4,5-d][1,3]diazepin-9-yl)phenyl)acrylamide], the GI50 in test [2] is 388 nM; in test [4], 492 nM. Besides, the IC50 in test [3] is over 10000 nM.

Turning to `CN(C)C/C=C/C(=O)Nc1cccc(N2C(=O)N(c3ccccc3)CCc3cnc(Nc4cn(C)nc4Cl)nc32)c1` [Compound 31, (E)-N-(3-(2-((3-chloro-1-methyl-1H-pyrazol-4-yl)amino)-8-oxo-7-phenyl-5,6,7,8-tetrahydro-9H-pyrimido[4,5-d][1,3]diazepin-9-yl)phenyl)-4-(dimethylamino)but-2-enamide], the GI50 in test [1] was found to be 2420 nM; in test [2], 2040 nM; in test [4] it was 3950 nM. Further, in test [3], the IC50 was over 10000 nM.

As for `C=CC(=O)Nc1cccc(N2C(=O)N(Cc3ccccc3)CCc3cnc(NC4CCCC4)nc32)c1` [Compound 13, N-(3-(7-benzyl-2-(cyclopentylamino)-8-oxo-5,6,7,8-tetrahydro-9H-pyrimido[4,5-d][1,3]diazepin-9-yl)phenyl)acrylamide], the values for the GI50 in test [1], in test [2] and in test [4] were 1030 nM, 848 nM and 1060 nM, respectively. Further, in test [3], the IC50 is over 10000 nM.

For the molecule `CN(C)C/C=C/C(=O)Nc1cccc(N2C(=O)N(c3ccccc3)CCc3cnc(Nc4ccc(C5CCN(C)CC5)cc4)nc32)c1` [Compound 38, (E)-4-(dimethylamino)-N-(3-(2-((4-(1-methylpiperidin-4-yl)phenyl)amino)-8-oxo-7-phenyl-5,6,7,8-tetrahydro-9H-pyrimido[4,5-d][1,3]diazepin-9-yl)phenyl)but-2-enamide], the values for the GI50 in test [2] and in test [4] were 9010 nM and 989 nM, respectively. Moreover, the IC50 in test [3] is 370 nM.

Regarding `CN(C)C/C=C/C(=O)Nc1cccc(N2C(=O)N(c3ccccc3)CCc3cnc(Nc4cccnc4F)nc32)c1` [Compound 44, (E)-4-(dimethylamino)-N-(3-(2-((2-fluoropyridin-3-yl)amino)-8-oxo-7-phenyl-5,6,7,8-tetrahydro-9H-pyrimido[4,5-d][1,3]diazepin-9-yl)phenyl)but-2-enamide], the GI50 amounted to 1230 nM in test [1], 936 nM in test [2] and 1140 nM in test [4]. The IC50 in test [3] was over 10000 nM.

`C=CC(=O)Nc1cccc(N2C(=O)N(Cc3ccccc3)CCc3cnc(NC4COC4)nc32)c1` [Compound 27, N-(3-(7-benzyl-2-(oxetan-3-ylamino)-8-oxo-5,6,7,8-tetrahydro-9H-pyrimido[4,5-d][1,3]diazepin-9-yl)phenyl)acrylamide]: the GI50 worked out at 606 nM in test [2] and 611 nM in test [4]. Moreover, the IC50 in test [3] is over 10000 nM.

For the molecule `CN(C)C/C=C/C(=O)Nc1cccc(N2C(=O)N(Cc3ccccc3)CCc3cnc(Nc4ccc(N5CCN(C)CC5)nc4)nc32)c1` [Compound 17, (E)-N-(3-(7-benzyl-2-((6-(4-methylpiperazin-1-yl)pyridin-3-yl)amino)-8-oxo-5,6,7,8-tetrahydro-9H-pyrimido[4,5-d][1,3]diazepin-9-yl)phenyl)-4-(dimethylamino)but-2-enamide], the figures for the GI50 in test [1], in test [2] and in test [4] were 793 nM, 1130 nM and 2770 nM, respectively. Besides, the IC50 in test [3] is over 10000 nM.

For the molecule `C=CC(=O)Nc1cccc(N2C(=O)N(Cc3ccccc3)CCc3cnc(Nc4cccnc4)nc32)c1` [Compound 12, N-(3-(7-benzyl-8-oxo-2-(pyridin-3-ylamino)-5,6,7,8-tetrahydro-9H-pyrimido[4,5-d][1,3]diazepin-9-yl)phenyl)acrylamide], the GI50 in test [2] and in test [4] was over 10000 nM each time. The molecule further registered an IC50 in test [3] of over 10000 nM.

Take `C=CC(=O)Nc1cccc(Nc2ncc3c(n2)N(C)C(=O)N(c2ccccc2)CC3)c1` [Compound 45, N-(3-((9-methyl-8-oxo-7-phenyl-6,7,8,9-tetrahydro-5H-pyrimido[4,5-d][1,3]diazepin-2-yl)amino)phenyl)acrylamide]: the GI50 in test [2] and in test [4] was over 10000 nM throughout. Besides, in test [3], the IC50 was 1220 nM.

Consider `CN(C)C/C=C/C(=O)Nc1cccc(N2C(=O)N(Cc3ccccc3)CCc3cnc(Nc4cn(C5CCN(C)CC5)nc4Cl)nc32)c1` [Compound 8, (E)-N-(3-(7-benzyl-2-((3-chloro-1-(1-methylpiperidin-4-yl)-1H-pyrazol-4-yl)amino)-8-oxo-5,6,7,8-tetrahydro-9H-pyrimido[4,5-d][1,3]diazepin-9-yl)phenyl)-4-(dimethylamino)but-2-enamide], for which the GI50 in test [2] amounted to 329 nM; in test [4], 940 nM. Moreover, the IC50 in test [3] is 114 nM.

As for `Cc1cc(Nc2ncc3c(n2)N(c2cccc(NC(=O)/C=C/CN(C)C)c2)C(=O)N(Cc2ccccc2)CC3)ccc1N1CCN(C)CC1` [Compound 23, (E)-N-(3-(7-benzyl-2-((3-methyl-4-(4-methylpiperazin-1-yl)phenyl)amino)-8-oxo-5,6,7,8-tetrahydro-9H-pyrimido[4,5-d][1,3]diazepin-9-yl)phenyl)-4-(dimethylamino)but-2-enamide], the GI50 in test [2] came to 911 nM; in test [4], 933 nM. In test [3], this molecule displayed an IC50 of 179 nM.
